Experimental data taken from patent EP4623908A1, “USE OF (-)-EPIGALLOCATECHIN GALLATE COMPOUND” (CF Pharmtech, Inc., priority 2022, dated 2024).

Legend:
[1] = cited from earlier work
[2] = test system: Pulmonary Fibrosis Induced by Bleomycin in Rats; assay: Bleomycin-induced pulmonary fibrosis model in rats (Example 5); assay type: in vivo, SD rats
Protocol: This study aims to compare the effects of different administration methods, including oral gavage of EGCG, tracheal nebulization of pirfenidone solution, and tracheal nebulization of EGCG at different doses, on the collagen content in lung tissues and pathological observations of rats with bleomycin-induced pulmonary fibrosis. The therapeutic effect of inhaled EGCG on rat pulmonary fibrosis was evaluated.
The solvents for the EGCG nebulization solution, modeling agents, and their solvents are as described in Example 4. The positive control drug is pirfenidone (purity 99%, pharmaceutical grade), with the solvent components consisting of NaCl and citric acid, forming a clear liquid.
SPF-grade SD rats, 6-9 weeks old with a weight of 200-300g, totaling 88 rats, were randomly divided into the following groups: • Sham operation group (normal control) (8 rats) • Pulmonary fibrosis model control group (10 rats) • Oral gavage EGCG group 1 (10 rats) • Oral gavage EGCG group 2 (10 rats) • Tracheal Nebulization EGCG solution groups 1-4 (10 rats per group, total 40 rats) • Tracheal Nebulization pirfenidone solution group (10 rats)
On D1, the normal control group was administered solvent 2 (saline injection solution, 1 mL/kg) via tracheal nebulization, while all other groups were administered bleomycin (2.5 mg/kg, 1 mL/kg) via tracheal nebulization twice a day (morning and afternoon) to establish the model. On D8, the body weights of the animals were recorded. From D10 to D28, the normal control and pulmonary fibrosis model groups were treated with solvent 1 via tracheal nebulization, while the remaining groups were administered EGCG or pirfenidone once daily at the following doses and administration methods: • Oral gavage EGCG group 1 and 2: 30 mg/kg, 60 mg/kg • Tracheal Nebulization EGCG group 1-4: 0.05 mg/kg, 0.4 mg/kg, 0.8 mg/kg, 1.6 mg/kg • Tracheal Nebulization pirfenidone solution group: 0.9 mg/kg (reference dose from M.W. Surber et al., ATS POSTER, 2014)
On D29, all animals were euthanized for dissection. During the necropsy, the lungs, trachea, and bronchi were examined for abnormalities. Left lung tissue was preserved at below -60°C for hydroxyproline content detection, and right lung tissue was prepared for pathological sectioning. Hematoxylin and eosin (HE) staining and Masson staining were performed for pathological morphological observations and fibrosis evaluation.
All groups were compared to the model group using statistical analysis via Kruskal-Wallis test. The results are indicated as follows: • *P < 0.05: statistically significant difference • **P < 0.01: highly significant difference • ***P < 0.001: extremely significant difference • ****P < 0.0001: extremely highly significant difference

[3] = animal experiments; inhalation; cited from earlier work
[4] = cited from earlier work; remark: listed apart in the source
[5] = nebulized 100 mg vs oral 801 mg

SMILES | diarrhea in clinical study participants ([1]; oral 150 mg twice daily (BID)) | Hydroxyproline Content ([2]; rat lung tissue, positive control, Inh 0.9 mg/kg once daily D10 to D28, Mean ±SEM) [µg/µL] | hydroxyproline content in rat lungs, difference from the model group ([2]; tracheal nebulization of pirfenidone solution 0.9 mg/kg) | photosensitivity reactions in patients ([1]; oral 801 mg three times daily (TID)) | half-life in the lungs [3] | plasma drug concentrations ([4]; inhalation) [ng/mL] | Cmax in epithelial lining fluid (ELF) relative to the Cmax of the oral dose (higher) [4, 5] [times] | systemic exposure relative to the oral dose (lower) [4, 5]
COC(=O)c1ccc2c(c1)NC(=O)/C2=C(\Nc1ccc(N(C)C(=O)CN2CCN(C)CC2)cc1)c1ccccc1 [nintedanib] | up to 61.5% |  |  |  |  |  |  | 
Cc1ccc(=O)n(-c2ccccc2)c1 [pirfenidone] |  | 0.587 ± 0.059 | not statistically significant | up to 51% | about 10 minutes | 807 to 1370 | 35 | about 15 times
